The source made the active and inactive calls. Rule as the data show it, for most assays here: actives have a measured IC50 and inactives only a lower limit.
How the values were obtained:
Assay type in all cases: functional
[1] = biological target: T1, Sentrin-specific protease 6 (Homo sapiens, UniProt Q9GZR1); assay: SAR Analysis of small molecule inhibitors of Sentrin-specific protease 6 (SENP6) using a Luminescent assay. [Related pubchem assays (depositor defined):AID2582, AID2599]
T1 sequence (Q9GZR1 whole entry): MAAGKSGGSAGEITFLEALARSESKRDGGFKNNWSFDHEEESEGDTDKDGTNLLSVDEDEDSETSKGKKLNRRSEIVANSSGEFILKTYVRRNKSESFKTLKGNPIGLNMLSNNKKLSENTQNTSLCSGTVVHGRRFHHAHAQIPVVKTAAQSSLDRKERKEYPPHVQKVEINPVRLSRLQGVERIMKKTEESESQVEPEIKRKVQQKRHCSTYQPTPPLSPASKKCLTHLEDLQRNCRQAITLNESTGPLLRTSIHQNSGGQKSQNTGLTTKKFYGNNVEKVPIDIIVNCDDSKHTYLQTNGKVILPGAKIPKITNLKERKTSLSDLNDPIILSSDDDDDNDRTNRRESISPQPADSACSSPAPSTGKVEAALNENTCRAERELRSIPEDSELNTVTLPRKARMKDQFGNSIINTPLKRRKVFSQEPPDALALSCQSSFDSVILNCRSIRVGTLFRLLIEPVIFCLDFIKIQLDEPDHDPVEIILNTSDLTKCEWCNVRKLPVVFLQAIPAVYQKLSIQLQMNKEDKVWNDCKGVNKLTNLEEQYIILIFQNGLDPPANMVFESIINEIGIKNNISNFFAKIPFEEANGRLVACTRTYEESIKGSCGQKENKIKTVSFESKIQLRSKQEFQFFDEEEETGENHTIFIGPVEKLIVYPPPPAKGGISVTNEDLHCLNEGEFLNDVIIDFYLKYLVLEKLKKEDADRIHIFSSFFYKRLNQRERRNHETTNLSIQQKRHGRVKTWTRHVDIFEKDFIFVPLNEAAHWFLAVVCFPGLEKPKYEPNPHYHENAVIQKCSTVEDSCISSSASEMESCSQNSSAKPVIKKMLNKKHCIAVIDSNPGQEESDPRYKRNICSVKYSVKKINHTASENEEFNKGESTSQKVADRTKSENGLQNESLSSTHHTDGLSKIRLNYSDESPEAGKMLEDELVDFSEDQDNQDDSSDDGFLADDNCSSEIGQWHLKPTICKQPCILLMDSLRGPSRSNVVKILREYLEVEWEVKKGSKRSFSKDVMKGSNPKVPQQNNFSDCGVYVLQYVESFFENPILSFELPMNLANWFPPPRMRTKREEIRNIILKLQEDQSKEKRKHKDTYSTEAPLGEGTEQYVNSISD

[2] = biological target: T2, Sentrin-specific protease 7 (Homo sapiens, UniProt Q9BQF6); assay: SENP7 protease inhibitors, SAR follow-up, biochemical, luminescence (AID 504497)
T2 sequence (Q9BQF6 whole entry): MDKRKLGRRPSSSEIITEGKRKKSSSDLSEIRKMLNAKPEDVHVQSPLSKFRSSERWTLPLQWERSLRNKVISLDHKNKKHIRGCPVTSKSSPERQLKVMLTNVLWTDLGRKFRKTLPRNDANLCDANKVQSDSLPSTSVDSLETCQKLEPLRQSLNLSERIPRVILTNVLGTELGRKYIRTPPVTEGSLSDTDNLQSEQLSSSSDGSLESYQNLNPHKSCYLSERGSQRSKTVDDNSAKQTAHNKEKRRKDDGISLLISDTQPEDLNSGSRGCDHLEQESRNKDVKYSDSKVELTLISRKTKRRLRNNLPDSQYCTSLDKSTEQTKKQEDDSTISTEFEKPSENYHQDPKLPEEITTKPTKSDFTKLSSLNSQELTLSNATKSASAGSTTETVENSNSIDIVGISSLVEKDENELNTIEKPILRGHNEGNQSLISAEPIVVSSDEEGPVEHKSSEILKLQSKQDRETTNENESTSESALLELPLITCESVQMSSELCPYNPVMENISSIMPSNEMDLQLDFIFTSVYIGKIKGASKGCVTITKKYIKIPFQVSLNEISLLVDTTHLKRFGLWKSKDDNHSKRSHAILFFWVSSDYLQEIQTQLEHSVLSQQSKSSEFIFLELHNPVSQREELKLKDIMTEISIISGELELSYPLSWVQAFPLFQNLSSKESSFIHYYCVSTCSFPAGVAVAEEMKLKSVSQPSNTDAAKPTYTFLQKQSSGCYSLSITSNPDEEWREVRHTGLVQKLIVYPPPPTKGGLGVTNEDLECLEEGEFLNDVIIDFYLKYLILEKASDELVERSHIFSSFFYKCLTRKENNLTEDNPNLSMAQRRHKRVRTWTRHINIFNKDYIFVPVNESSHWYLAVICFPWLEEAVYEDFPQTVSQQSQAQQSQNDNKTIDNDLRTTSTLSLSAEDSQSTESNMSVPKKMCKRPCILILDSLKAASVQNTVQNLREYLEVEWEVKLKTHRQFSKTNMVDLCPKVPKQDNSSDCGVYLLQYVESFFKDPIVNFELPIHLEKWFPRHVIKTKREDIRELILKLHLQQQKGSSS

Caspase-3 = biological target: T3, Caspase-3 (Homo sapiens, UniProt P42574); assay: SAR Analysis of small molecule inhibitors of Sentrin-specific proteases (SENPs) using a Caspase-3 Selectivity assay. [Related pubchem assays (depositor defined):AID2540, AID2599, AID434973, AID489001]
T3 sequence (P42574 whole entry): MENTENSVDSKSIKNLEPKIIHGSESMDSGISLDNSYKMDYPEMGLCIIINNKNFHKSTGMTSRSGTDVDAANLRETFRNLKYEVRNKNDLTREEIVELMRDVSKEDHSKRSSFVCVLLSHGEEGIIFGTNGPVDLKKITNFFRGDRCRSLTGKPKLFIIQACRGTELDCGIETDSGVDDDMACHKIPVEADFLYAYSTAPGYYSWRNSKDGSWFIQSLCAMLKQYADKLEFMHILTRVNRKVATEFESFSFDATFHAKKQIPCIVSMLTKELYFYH

[3] = biological target: T4, Sentrin-specific protease 8 (Homo sapiens, UniProt Q96LD8); assay: SENP8 protease inhibitors, SAR follow-up, biochemical, luminescence (AID 504501)
T4 sequence (Q96LD8 whole entry): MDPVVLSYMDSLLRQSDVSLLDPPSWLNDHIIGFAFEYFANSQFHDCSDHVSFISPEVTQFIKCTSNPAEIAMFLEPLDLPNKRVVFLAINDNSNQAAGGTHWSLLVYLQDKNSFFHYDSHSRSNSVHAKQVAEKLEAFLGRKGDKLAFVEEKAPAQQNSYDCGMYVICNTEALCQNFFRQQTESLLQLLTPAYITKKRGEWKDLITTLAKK

[4] = biological target: T5, Neuropeptides B/W receptor type 1 (Homo sapiens, UniProt P48145); assay: GPR7 antagonist potency, late-stage follow-up, cell-based, fluorescence, dose response, set 6 (AID 588583)
T5 sequence (P48145 whole entry): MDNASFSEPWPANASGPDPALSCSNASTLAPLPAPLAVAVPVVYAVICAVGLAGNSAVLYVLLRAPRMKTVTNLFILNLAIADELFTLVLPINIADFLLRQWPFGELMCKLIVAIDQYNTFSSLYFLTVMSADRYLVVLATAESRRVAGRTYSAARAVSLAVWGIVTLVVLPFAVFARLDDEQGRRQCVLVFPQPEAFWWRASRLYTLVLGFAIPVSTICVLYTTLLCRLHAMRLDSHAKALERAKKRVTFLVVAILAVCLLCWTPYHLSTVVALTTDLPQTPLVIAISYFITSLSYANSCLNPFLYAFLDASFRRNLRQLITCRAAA

[5] = biological target: Melanin-concentrating hormone receptor 1 (Homo sapiens, UniProt Q99705); assay: Late-stage fluorescence-based counterscreen for antagonists of the G-protein coupled receptor 7 (GPR7): cell-based dose response assay to identify antagonists of the melanin-concentrating hormone receptor 1 (MCHR1) Set 6.
Chain of Melanin-concentrating hormone receptor 1 (Q99705 whole entry): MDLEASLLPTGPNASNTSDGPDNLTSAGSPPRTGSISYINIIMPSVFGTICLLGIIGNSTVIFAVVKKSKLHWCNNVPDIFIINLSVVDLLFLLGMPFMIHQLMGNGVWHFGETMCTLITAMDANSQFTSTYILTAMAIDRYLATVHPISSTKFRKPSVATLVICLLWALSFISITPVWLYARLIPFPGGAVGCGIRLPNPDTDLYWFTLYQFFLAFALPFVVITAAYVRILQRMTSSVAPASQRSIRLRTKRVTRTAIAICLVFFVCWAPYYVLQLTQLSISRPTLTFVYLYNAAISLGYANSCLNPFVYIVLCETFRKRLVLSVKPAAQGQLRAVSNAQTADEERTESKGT

Row | IC50 [1] | IC50 [2] | IC50 (Caspase-3) | IC50 [4] | IC50 [5] | Structure (SMILES) | IC50 [3]
1 | > 99 µM (inactive) | > 99 µM (inactive) | > 99 µM (inactive) | – | – | CCCCc1ccc2nc(NC(=O)c3csc4ccccc34)sc2c1 | > 99 µM (inactive)
2 | > 99 µM (inactive) | > 99 µM (inactive) | > 99 µM (inactive) | – | – | N#Cc1c(NC(=O)c2ccc(Cn3cc(Br)cn3)o2)sc2c1CCCCCC2 | > 99 µM (inactive)
3 | – | – | – | 0.435 µM (active) | 0.435 µM (active) | Cc1nnc(C(C#N)c2c(Cl)cnn(Cc3cccc4ccccc34)c2=O)o1 (configuration not stated) | –
4 | – | – | – | 1.53 µM (active) | 1.53 µM (active) | N#CC(c1cccc(C(F)(F)F)c1)c1c(Cl)cnn(Cc2cccc3ccccc23)c1=O (configuration not stated) | –
